Source: article PMC9166766 (Experimental & Molecular Medicine, 2022)
Each block holds one compound with its values, some of them ahead of it. No end group written: not given here.

Columns and labels:
[1] = tested on: CNAβ2 (calcineurin catalytic subunit); experiment: Mammalian two-hybrid assay (VP16 AD-CNAβ2 and GAL4 DBD-peptides, pG5-luc) in HEK293T cells; assay type: cell-based; conditions: for interaction with / binding affinity to CNA (mammalian two-hybrid): CNAβ2, 24 h, repeated three times
Procedure: (§1) To measure the transcriptional activity of NFAT, we cotransfected Jurkat T cells with GST-tagged peptides and NFAT-luc by electroporation. After 24 h, we pretreated the cells with 0.5 μM FK506 for 1 h and then treated them with 40 nM PMA and 1 μM ionomycin for 8 h. For the mammalian two-hybrid assay, we cotransfected HEK293T cells with GAL4 DBD-tagged CABIN1, VIVIT, chimeric and substituted peptides, VP16 activation domain-tagged CNAβ2, and pG5-luc (luciferase reporter plasmid containing the GAL4-responsive promoter) for 24 h. We lysed the harvested cells with a luciferase assay lysis buffer (17 mM KH2PO4, 183 mM K2HPO4, pH 7.8, 0.2% [v/v] Triton X-100) and sonicated them briefly. We measured luciferase activity for each cell lysate using an Infinite M200 (Tecan, Männedorf, Switzerland). In addition, we confirmed the expression level of the transfected proteins by Western blotting.
A mammalian two-hybrid assay using these peptides was performed (bottom). The compositions of the transfected DNA are described in Supplementary Fig. 1a–c. All experiments were repeated three times and are presented as the mean ± standard deviation. […] SE short exposure, LE long exposure, NC negative control, WT wild-type.
(§2) NC negative control, WT wild-type.

[2] = design: method as in PMID 24319282; conditions: ref [17]; cited from earlier work
Description: FK506 and cyclosporin A, respectively cooperating with FKBP12 or cyclophilin, spatially hinder the substrates’ access to the active site of calcineurin, inhibiting its phosphatase activity[30],[31].

[3] = tested on: CABIN1 peptide-CNA interaction; experiment: Immunoprecipitation of HA-mCherry-CABIN1 peptide and bound CNA from treated Jurkat T cells; assay type: cell-based; conditions: for CABIN1 peptide binding to CNA, effect of p38 inhibitor: 10 μM inhibitor, 16 h, n = 6
Description: We lysed the cells in IP150 buffer and immunoprecipitated Flag- and HA-tagged proteins with Anti-FLAG ® M2 Affinity Gel (Sigma–Aldrich) and Pierce™ Anti-HA Agarose (Thermo Fisher Scientific), respectively. […] To quantify the western blot results, we measured the band areas using ImageJ (https://imagej.nih.gov/ij/).
Values shown are the mean ± standard deviation.

[4] = tested on: CABIN1 peptide threonine 9 phosphorylation; experiment: Phosphorylation of threonine 9 of the expressed peptide in Jurkat T cells (PXpTP western blot, LC-MS/MS); assay type: cell-based; conditions: Jurkat; for phosphorylation of the CABIN1 peptide, effect of p38 inhibitor: 10 μM inhibitor, 16 h, n = 6
Description: We lysed the cells in IP150 buffer and immunoprecipitated Flag- and HA-tagged proteins with Anti-FLAG ® M2 Affinity Gel (Sigma–Aldrich) and Pierce™ Anti-HA Agarose (Thermo Fisher Scientific), respectively. The composition of the buffer and the subsequent process was described previously. To quantify the western blot results, we measured the band areas using ImageJ (https://imagej.nih.gov/ij/).
We purified HA-mCherry-tagged CABIN1-L-1-2 peptides expressed in Jurkat T cells by immunoprecipitating 4 mg of lysates with Pierce™ Anti-HA Agarose. We eluted the bead-bound proteins by competition with 1 mg/ml HA peptide. After separation by SDS-PAGE and staining with Coomassie Brilliant Blue, we analyzed the purified proteins by LC-MS/MS (ProteomeTech, Inc., Seoul, Korea).
(§3) RU response units, NC negative control.
The phosphorylated threonine of the immunoprecipitated peptide with HA antibody was detected with [PXpTP] antibody. b In vitro kinase assays using purified GST-tagged CABIN1 peptide and PKC downstream kinases. c In vitro kinase assays using purified GST-tagged peptides and kinases included in the MAPK family. d Immunoprecipitation assays using Flag-MAPKs and HA-CABIN1 in HEK293T cells. e, f In vitro kinase assays using p38α and substituted CABIN1 peptides. g Jurkat T cells expressing HA-mCherry-tagged CABIN1 peptide were treated with 10 μM p38α inhibitors for 16 h. Immunoprecipitation was performed with HA antibody and detected by western blotting. h Phosphorylated threonine and peptide-bound CNA of g were measured using ImageJ, and the ratio of phosphorylation and calcineurin binding to the CABIN1 peptide was calculated (n = 6). […] Statistical differences were determined using one-way ANOVA. *p < 0.05, **p < 0.01, ***p < 0.001, CBB Coomassie Brilliant Blue, NC negative control.

[5] = tested on: CNAβ2 (calcineurin catalytic subunit); experiment: In vitro His-pulldown assay of GST-tagged peptides with His-tagged CNA; assay type: binding; conditions: IP150 buffer with 0.5 mM EDTA
Procedure: (§4) GST-tagged peptides and His-tagged CNAα and β2 were expressed in Escherichia coli BL21(DE3)pLysS. When the OD600 reached 0.5, we treated the bacteria with IPTG (0.1 mM overnight at 18 °C or 1 mM for 4 h at 37 °C). We purified the proteins as described previously. We performed a His-pulldown assay with 0.5 ml of IP150 buffer with 0.5 mM EDTA. We mixed His-tagged CNA with GST-tagged peptides and captured it on Ni-NTA agarose beads (Qiagen, Hilden, Germany). We washed the beads three times with binding buffer and analyzed the proteins by western blotting. We pulled down the GST-tagged peptides using Glutathione Sepharose™ 4 Fast Flow (Cytiva, Marlborough, MA, USA) and the biotin-labeled peptides using Streptavidin Agarose Resin (Thermo Fisher Scientific).
as §2, §3

[6] = tested on: CNAβ2 (calcineurin catalytic subunit); experiment: Immunoprecipitation assay of Flag-CNAβ2 and tagged peptides in HEK293T cells; assay type: cell-based
Description: as §2, §3
(§5) (1 picture or pasted object on this page, not shown here)

[7] = tested on: NFAT transcriptional activity; experiment: NFAT-luc luciferase reporter assay in Jurkat T cells; assay type: cell-based; conditions: GST-tagged CABIN1 peptides, PMA and ionomycin, n = 3, T9V vs T6V
Procedure: as §1, §3, §5

p38α = experiment: In vitro kinase assay, p38α; assay type: biochemical; conditions: GST-tagged peptide, 1 h, 30 °C, 50 μM ATP
Procedure: (§6) We used the purified GST-tagged peptides for the in vitro kinase assays with activated recombinant kinases obtained from Proqinase GmbH (Freiburg, Germany). We performed the kinase assays in reaction buffer (50 mM HEPES-NaOH, pH 7.5, 3 mM MgCl2, 3 mM MnCl2, 3 μM sodium orthovanadate, 1 mM dithiothreitol, 50 μM unlabeled ATP, 5 μCi ^32P-γ-ATP) for 1 h at 30 °C. We stopped the reaction by adding 5× sample buffer and separated the proteins using SDS-PAGE. The gel was stained with Coomassie Brilliant Blue, dried, and developed on X-ray film.
(§7) The phosphorylated threonine of the immunoprecipitated peptide with HA antibody was detected with [PXpTP] antibody. b In vitro kinase assays using purified GST-tagged CABIN1 peptide and PKC downstream kinases. c In vitro kinase assays using purified GST-tagged peptides and kinases included in the MAPK family. d Immunoprecipitation assays using Flag-MAPKs and HA-CABIN1 in HEK293T cells. e, f In vitro kinase assays using p38α and substituted CABIN1 peptides. g Jurkat T cells expressing HA-mCherry-tagged CABIN1 peptide were treated with 10 μM p38α inhibitors for 16 h. Immunoprecipitation was performed with HA antibody and detected by western blotting. h Phosphorylated threonine and peptide-bound CNA of g were measured using ImageJ, and the ratio of phosphorylation and calcineurin binding to the CABIN1 peptide was calculated (n = 6). […]

JNK1 = experiment: In vitro kinase assay, JNK1; assay type: biochemical; conditions: GST-tagged peptide, 1 h, 30 °C, 50 μM ATP
Procedure: as §6, §7

ERK2 = experiment: In vitro kinase assay, ERK2; assay type: biochemical; conditions: GST-tagged peptide, 1 h, 30 °C, 50 μM ATP
Procedure: as §6, §7

[8] = tested on: CNA (calcineurin catalytic subunit); conditions: biotinylated peptides, His-CNA
Procedure: as §4, §3

[9] = tested on: CNA (His-tagged calcineurin catalytic subunit); experiment: Surface plasmon resonance (Biacore T200)
Procedure: Using a Biacore T200 (Cytiva), we captured the biotin-labeled peptides on the surface of a Series S Sensor Chip SA (Cytiva). […] Each cycle was performed at 25 °C at a flow rate of 30 μl/min with 120 s of contact and 240 s of dissociation. We analyzed the kinetics of interactions using BIAevaluation 3.2 RC1 (Cytiva).
Biotinylated peptide-bound CNA was detected with His antibody. […] CNA concentrations ranged from 1.25, 2.5, 5, and 10 nM. […] Values shown are the mean ± standard deviation.

HIF-1α = HIF-1α stabilization in Jurkat T cells (western blot); assay type: cell-based; conditions: DMOG
Procedure: Supplementary Fig. 4 No hydroxylation or O -GlcNAcylation occurred in the “PPTP” sequence a Jurkat T cells expressing HA-mCherry -CABIN1 peptide w ere tr eated with DMO G in a dose-dependent manner for 12 h. b Jurkat T cells expressing HA-mCherry-CABIN1 peptide were treated with 500 μ M DMOG in a time-depend ent manner. Each cell lysate was immunoprecipitated with HA antibody and CABIN1 peptide-bound CNA was detected by Western blotting. HIF-1α was det ected as a positive control for DMOG treat ment. c HEK293 T cells were transfected with GST-peptides and GST pull-down assay was conducted.
Hydroxyproline and O-linked glycosylation of the peptides were detected b y Western blotting.
as §5

[10] = biotinylated peptide on SA chip, CNA 1.25-10 nM, HBS-EP+ pH 7.4, 25 °C, 30 μl/min, mean ± SD

Compound: CABIN1-L-2: CABIN1-L with C-terminal residues removed (FPPEITVTPPT; also: GAL4 DNA-binding domain tag)
- interaction with / binding affinity to CNA (mammalian two-hybrid) [1]: completely lost its binding affinity to CNA

Compound: CABIN1-L-1-3: CABIN1-L-1 with N-terminal residues removed (EITVTPPTP; also: GAL4 DNA-binding domain tag)
- interaction with / binding affinity to CNA (mammalian two-hybrid) [1]: lost its binding affinity

Compound: cyclosporin A
- side effects [2]: nephrotoxicity, fibrogenesis, neurotoxicity, and diabetes

Compound: Cc1ccccc1C(=O)c1ccc(Nc2ccc(Br)cc2N)cc1Cl [EO 1428]
- CABIN1 peptide binding to CNA, effect of p38 inhibitor [3]: decreasing its binding affinity for CNA
- phosphorylation of the CABIN1 peptide, effect of p38 inhibitor [4]: significantly reduced phosphorylation of the CABIN1 peptide

Compound: CABIN1-L: first 13-amino acid segment containing the PxIxIT motif, from CABIN1-14 (FPPEITVTPPTPT; also: GAL4 DNA-binding domain tag)
- interaction with / binding affinity to CNA (mammalian two-hybrid) [1]: significantly stronger affinity for CNA than CABIN1-14

Compound: CCCCCCCCCCCCCC(=O)O[C@@H]1[C@@H](C)[C@@]2(O)[C@@H](C=C(CO)C[C@]3(O)C(=O)C(C)=C[C@@H]23)[C@@H]2C(C)(C)[C@]12OC(C)=O [PMA, phorbol myristate acetate]
- CABIN1 peptide phosphorylation after PMA ([4]; 40 nM PMA, two hours after treatment): CABIN1 peptide phosphorylation increased

Compound: T6V: CABIN1 peptide with threonine 6 substituted with valine (PEITVVPPTP; also: GST and HA tags, end not given here)
- interaction with CNA in vitro (His-pulldown) [5]: abolished the interaction
- interaction with CNA by immunoprecipitation [6]: abolished the interaction

Compound: CABIN1-L-1-1: CABIN1-L-1 with N-terminal residues removed (PPEITVTPPTP; also: GAL4 DNA-binding domain tag)
- interaction with / binding affinity to CNA (mammalian two-hybrid) [1]: still bound to CNA

Compound: T9V: CABIN1 peptide with threonine 9 substituted with valine (PEITVTPPVP; not fully specified)
- NFAT transcriptional activity restored by substitution [7]: restored the CABIN1-suppressed transcriptional activity of NFAT more efficiently than the T6V substitution
- interaction with CNA in vitro (His-pulldown) [5]: not in vitro
- interaction with CNA by immunoprecipitation [6]: abolished the interaction in the cellular experiment

- phosphorylation by p38α (p38α): phosphorylated
- phosphorylation by JNK1 (JNK1): phosphorylated
- phosphorylation by ERK2 (ERK2): phosphorylated
Compound: VIVIT PPTP: chimeric peptide with C-terminal sequence of VIVIT swapped for PPTP of CABIN1 (PVIVITPPTP; also: GAL4 DNA-binding domain tag)
- fold enhancement of interaction with CNA, VIVIT PPTP vs. L-1-2 WT (effect of N-terminal PVIVIT) ([1]; CNAβ2, VIVIT PPTP vs. L-1-2 WT): 1.93 fold
- fold enhancement of interaction with CNA, VIVIT PPTP vs. VIVIT 10-mer (effect of C-terminal PPTP) ([1]; CNAβ2, VIVIT PPTP vs. VIVIT 10-mer): 4.76 fold

- Kd (dissociation rate) [9, 10]: 5.79e-4±3.2e-5 1/S
Compound: Biotin-AAAMAGFPPEITVTPP{pTHR}P [p-CABIN1-L-1]
- affinity for CNA (streptavidin pulldown) [8]: dramatically increased the affinity for CNA
- increase in binding affinity by phosphorylation of the 9th threonine ([9]; SPR, phosphorylated vs unphosphorylated CABIN1 peptide): increased the binding affinity by approximately threefold
- Ka (association rate) [9, 10]: 3393.3±380.8 1/MS

Compound: COC(=O)CNC(=O)C(=O)OC [DMOG, dimethyloxalylglycine]
- HIF-1α stabilization (HIF-1α): stabilized hypoxia-inducible factor-1alpha (HIF-1α)
- CABIN1 peptide and CNA interaction, effect of DMOG ([3]; DMOG dose-dependent 12 h or 500 μM time-dependent): did not affect the CABIN1 peptide and CNA interaction

Compound: CCc1nc(-c2cccc(C)c2)c(-c2ccnc(NC(=O)c3ccccc3)c2)s1 [TAK 715]
- CABIN1 peptide binding to CNA, effect of p38 inhibitor [3]: decreasing its binding affinity for CNA
- phosphorylation of the CABIN1 peptide, effect of p38 inhibitor [4]: significantly reduced phosphorylation of the CABIN1 peptide
